Experimental data taken from patent US7732425B2, “Pharmaceutical composition for ophthalmic use” (Kabushiki Kaisha Hayashibara Seibutsu Kagaku Kenkyujo, priority 2000, dated 2010).

System: ophthalmologic clinical symptoms and signs of Sjögren syndrome
Assay: Therapeutic experiment with α,α-trehalose eye drops in patients diagnosed with Sjögren syndrome
Format: in vivo, human
Text: To confirm the therapeutic effect by trehalose on the ophthalmologic clinical symptoms and signs of Sjögren syndrome, patients consisting of 10 men and 10 women, 22-65 years old (a mean average of 45 years old), who were diagnosed as Sjögren syndrome and had been suffering from clinical symptoms such as foreign body sensation, burning, and itching in their both eyes, were subjected to a therapeutic experiment. In this experiment, a reagent grade of α,α-trehalose with a purity of 99% or higher, commercialized by Hayashibara Biochemical Laboratories, Inc., Okayama, Japan, was dissolved in physiological saline to give a final concentration of 3.5% (w/v) or 7.5% (w/v), and filtered with a 0.22 μm membrane filter to remove bacteria. Then, the filtrate was removed pyrogen in a usual manner for a test preparation. As a control, a similar preparation was provided except for not dissolving α,α-trehalose therein. The 3.5% (w/v) α,α-trehalose solution was administered to one eye for each one of 5-male and 5-female patients, while the physiological saline as a control was administered to the other eye for each one of the patients. The administrations were conducted at four times (getting up, daytime, evening, and before sleeping) a day and at a dose of two to three drops (a volume of about 0.05 to about 0.075 ml) per shot for four weeks. Before and after this experiment, the patients were asked to grade the symptoms of foreign body sensation, burning, and itching in their eyes. Using the 7.5% (w/v) α,α-trehalose solution, a similar experiment was conducted with the remaining male and female patients, five each.

[1] = patients with Sjögren syndrome, 3.5% or 7.5% (w/v) solution, four times a day for four weeks

- exacerbation of the ophthalmologic clinical symptoms and signs in the treated eyes (all twenty patients, during and after completion of the four-week experiment): no exacerbation
SMILES: OC[C@H]1O[C@H](O[C@H]2O[C@H](CO)[C@@H](O)[C@H](O)[C@H]2O)[C@H](O)[C@@H](O)[C@@H]1O [α,α-trehalose]
- duration of therapeutic effect after end of administration (after completion of the four-week experiment): lasted for some days even after the completion of this experiment
- improvement or remission of the subjective ophthalmic symptoms of foreign body sensation, burning, and itching (patients with Sjögren syndrome, 3.5% (w/v) or 7.5% (w/v) solution in physiological saline, one eye, 2-3 drops four times a day for four weeks, other eye saline control): nine out of ten patients
- corneal and conjunctival erosions stained by fluorescein and rose bengal (objective sign) [1]: reduced in all the ten patients
- tear film break-up time (objective sign) [1]: improved in nine out of ten patients
